PubChem BioAssay AID1963445 (Molecular Pharmacology Branch, DTP, NCI, 2024)

Test system: MCF7 complex spheroid growth, % test/control
Assay: Anticancer human tumor MCF7 cell line growth inhibition [Asc];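 note: spheroids exposed to compounds for 7 days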;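 for viability, T/C: 100% = DMSO vehicle control wells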
Details: for IC50: curve of first compound; for viability, T/C: stronger effect = lower value
In short: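 Tumor cells were grown as multicellular spheroids with stromal HUVEC and mesenchymal stem cells and treated singly or in combination. Concentrations fell in half-log steps from the clinical Cmax, or from 10 microM where none was known.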

[1] = second compound 0.00316 µM, first compound 0.0316 µM
[2] = second compound 0.00316 µM, first compound 0.1 µM
[3] = second compound 0.01 µM, first compound 0.0316 µM
[4] = second compound 0.01 µM, first compound 0.1 µM
[5] = second compound 0.0316 µM, first compound 0.0316 µM
[6] = second compound 0.0316 µM, first compound 0.1 µM
[7] = second compound 0.1 µM, first compound 0.0316 µM
[8] = second compound 0.1 µM, first compound 0.1 µM
[9] = second compound 0.316 µM, first compound 0.0316 µM
[10] = second compound 0.316 µM, first compound 0.1 µM
[11] = second compound 1 µM, first compound 0.0316 µM
[12] = second compound 1 µM, first compound 0.1 µM

NC1CCC(NC2CC2c2ccccc2)CC1 (centres undefined) + CNC(C)C(=O)NC1CN(S(=O)(=O)c2cccc(S(=O)(=O)N3CCC4CCC(C(=O)NC(c5ccccc5)c5ccccc5)N4C(=O)C(NC(=O)C(C)NC)C3)c2)CCC2CCC(C(=O)NC(c3ccccc3)c3ccccc3)N2C1=O
IC50 (second compound 0.00316 µM): < 0.316 nM
IC50 (second compound 0.01 µM): < 0.316 nM
IC50 (second compound 0.0316 µM): < 0.316 nM
IC50 (second compound 0.1 µM): < 0.316 nM
IC50 (second compound 0.316 µM): < 0.316 nM
IC50 (second compound 1 µM): < 0.316 nM
viability, T/C (second compound 0.00316 µM, first compound 0.000316 µM): 23.3%
viability, T/C (second compound 0.00316 µM, first compound 0.001 µM): 18.5%
viability, T/C (second compound 0.00316 µM, first compound 0.00316 µM): 16.4%
viability, T/C (second compound 0.00316 µM, first compound 0.01 µM): 21.6%
viability, T/C [1]: 18.2%
viability, T/C [2]: 22.6%
viability, T/C (second compound 0.01 µM, first compound 0.000316 µM): 11.9%
viability, T/C (second compound 0.01 µM, first compound 0.001 µM): 12.3%
viability, T/C (second compound 0.01 µM, first compound 0.00316 µM): 12.2%
viability, T/C (second compound 0.01 µM, first compound 0.01 µM): 10.7%
viability, T/C [3]: 10.4%
viability, T/C [4]: 10.8%
viability, T/C (second compound 0.0316 µM, first compound 0.000316 µM): 11.2%
viability, T/C (second compound 0.0316 µM, first compound 0.001 µM): 9.92%
viability, T/C (second compound 0.0316 µM, first compound 0.00316 µM): 10.8%
viability, T/C (second compound 0.0316 µM, first compound 0.01 µM): 10.2%
viability, T/C [5]: 10.9%
viability, T/C [6]: 11.9%
viability, T/C (second compound 0.1 µM, first compound 0.000316 µM): 13.9%
viability, T/C (second compound 0.1 µM, first compound 0.001 µM): 12.6%
viability, T/C (second compound 0.1 µM, first compound 0.00316 µM): 12.5%
viability, T/C (second compound 0.1 µM, first compound 0.01 µM): 10.5%
viability, T/C [7]: 13.6%
viability, T/C [8]: 13.8%
viability, T/C (second compound 0.316 µM, first compound 0.000316 µM): 11.4%
viability, T/C (second compound 0.316 µM, first compound 0.001 µM): 16.8%
viability, T/C (second compound 0.316 µM, first compound 0.00316 µM): 16.9%
viability, T/C (second compound 0.316 µM, first compound 0.01 µM): 15.8%
viability, T/C [9]: 12%
viability, T/C [10]: 14.2%
viability, T/C (second compound 1 µM, first compound 0.000316 µM): 13.1%
viability, T/C (second compound 1 µM, first compound 0.001 µM): 12.3%
viability, T/C (second compound 1 µM, first compound 0.00316 µM): 13.9%
viability, T/C (second compound 1 µM, first compound 0.01 µM): 15.8%
viability, T/C [11]: 15%
viability, T/C [12]: 10.2%

O=C(c1cc(Cc2n[nH]c(=O)c3ccccc23)ccc1F)N1CCN(C(=O)C2CC2)CC1 + CNC(C)C(=O)NC1CN(S(=O)(=O)c2cccc(S(=O)(=O)N3CCC4CCC(C(=O)NC(c5ccccc5)c5ccccc5)N4C(=O)C(NC(=O)C(C)NC)C3)c2)CCC2CCC(C(=O)NC(c3ccccc3)c3ccccc3)N2C1=O
IC50 (second compound 0.00316 µM): < 31.6 nM
IC50 (second compound 0.01 µM): < 31.6 nM
IC50 (second compound 0.0316 µM): < 31.6 nM
IC50 (second compound 0.1 µM): < 31.6 nM
IC50 (second compound 0.316 µM): < 31.6 nM
IC50 (second compound 1 µM): < 31.6 nM
viability, T/C [1]: 10.6%
viability, T/C [2]: 15.2%
viability, T/C (second compound 0.00316 µM, first compound 0.316 µM): 8.86%
viability, T/C (second compound 0.00316 µM, first compound 1 µM): 10.7%
viability, T/C (second compound 0.00316 µM, first compound 3.16 µM): 10.2%
viability, T/C (second compound 0.00316 µM, first compound 10 µM): 11.4%
viability, T/C [3]: 16.2%
viability, T/C [4]: 14.4%
viability, T/C (second compound 0.01 µM, first compound 0.316 µM): 14.5%
viability, T/C (second compound 0.01 µM, first compound 1 µM): 15.3%
viability, T/C (second compound 0.01 µM, first compound 3.16 µM): 16.9%
viability, T/C (second compound 0.01 µM, first compound 10 µM): 14%
viability, T/C [5]: 13.8%
viability, T/C [6]: 12%
viability, T/C (second compound 0.0316 µM, first compound 0.316 µM): 11.5%
viability, T/C (second compound 0.0316 µM, first compound 1 µM): 13.1%
viability, T/C (second compound 0.0316 µM, first compound 3.16 µM): 11.4%
viability, T/C (second compound 0.0316 µM, first compound 10 µM): 12.3%
viability, T/C [7]: 13%
viability, T/C [8]: 13.8%
viability, T/C (second compound 0.1 µM, first compound 0.316 µM): 11.8%
viability, T/C (second compound 0.1 µM, first compound 1 µM): 13.8%
viability, T/C (second compound 0.1 µM, first compound 3.16 µM): 12.1%
viability, T/C (second compound 0.1 µM, first compound 10 µM): 11.4%
viability, T/C [9]: 14.7%
viability, T/C [10]: 12.3%
viability, T/C (second compound 0.316 µM, first compound 0.316 µM): 11.8%
viability, T/C (second compound 0.316 µM, first compound 1 µM): 12.3%
viability, T/C (second compound 0.316 µM, first compound 3.16 µM): 11.3%
viability, T/C (second compound 0.316 µM, first compound 10 µM): 13.5%
viability, T/C [11]: 11.1%
viability, T/C [12]: 10.9%
viability, T/C (second compound 1 µM, first compound 0.316 µM): 13.7%
viability, T/C (second compound 1 µM, first compound 1 µM): 10.9%
viability, T/C (second compound 1 µM, first compound 3.16 µM): 11.9%
viability, T/C (second compound 1 µM, first compound 10 µM): 14.3%
